Reference: PubChem BioAssay (NCI)
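Where inhibition never reached the appropriate level, the endpoint shown equals the highest concentration tested. Otherwise, values were interpolated linearly from a five-concentration, 48-hour dose response in 96-well plates. Here, GI50 denotes the concentration required for 50% inhibition of growth. TGI denotes the concentration required for complete inhibition of growth.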

How the values were obtained:
Experiment in all cases: DTP human tumour cell line panel, 48 h
COLO 205 colon = test system: COLO 205 colon
HCC-2998 colon = test system: HCC-2998 colon
UO-31 renal = test system: UO-31 renal
NCI-H522 lung = test system: NCI-H522 lung
KM12 colon = test system: KM12 colon
CAKI-1 renal = test system: CAKI-1 renal
MALME-3M melanoma = test system: MALME-3M melanoma
NCI-H460 lung = test system: NCI-H460 lung
SF-539 CNS = test system: SF-539 CNS
ACHN renal = test system: ACHN renal

SMILES | TGI (COLO 205 colon) [µM] | TGI (HCC-2998 colon) [µM] | TGI (UO-31 renal) [µM] | TGI (NCI-H522 lung) [µM] | TGI (KM12 colon) [µM] | TGI (CAKI-1 renal) [µM] | TGI (MALME-3M melanoma) [µM] | TGI (NCI-H460 lung) [µM] | TGI (SF-539 CNS) [µM] | TGI (ACHN renal) [µM] | GI50 (COLO 205 colon) [µM] | GI50 (HCC-2998 colon) [µM] | GI50 (UO-31 renal) [µM] | GI50 (KM12 colon) [µM] | GI50 (CAKI-1 renal) [µM] | GI50 (MALME-3M melanoma) [µM] | GI50 (NCI-H460 lung) [µM] | GI50 (ACHN renal) [µM] | GI50 (SF-539 CNS) [µM] | GI50 (NCI-H522 lung) [µM]
O=C(NC(Cc1ccc(I)cc1)C(=O)O)c1ccc(Cl)cc1 (stereo not given) | > 100 | > 100 | > 100 | > 100 | > 100 | > 100 | > 100 | > 100 | > 100 | – | – | – | – | – | – | – | – | – | – | –
CO/N=C(\C)c1cccc(Nc2nc3ccccc3c3occc23)c1 | 24.5 | 28.8 | – | – | 24.5 | 25.4 | 29.7 | 29.6 | 26.9 | 27.9 | – | – | – | – | – | – | – | – | – | –
COc1cc([N+](=O)[O-])ccc1N1C(=O)C2c3[nH]c4ccccc4c3C3CCC(C(C)(C)C)CC3C2C1=O (stereo not given) | > 100 | > 100 | > 100 | > 100 | > 100 | 24.9 | > 100 | > 100 | > 100 | > 100 | – | – | – | – | – | – | – | – | – | –
O=C1OC2(OC2c2ccc(Cl)cc2)c2ccccc21 (stereo not given) | > 100 | > 100 | > 100 | > 100 | > 100 | > 100 | > 100 | > 100 | > 100 | > 100 | – | – | – | – | – | – | – | – | – | –
CNC(C)Cc1ccccc1OC (stereo not given) | > 100 | > 100 | > 100 | > 100 | > 100 | > 100 | > 100 | > 100 | > 100 | > 100 | – | – | – | – | – | – | – | – | – | –
Cc1ccc([N+](=O)[O-])cc1S(=O)(=O)Nc1ccc(C2=NOC(c3ccccc3O)C2)cc1 (stereo not given) | 19.8 | 24.8 | 1.34 | 6.4 | 38.2 | > 100 | > 100 | 25.3 | > 100 | > 100 | – | – | – | – | – | – | – | – | – | –
CCOP(=O)(OCC)C(Nc1cccc(F)c1)c1ccc(N(C)C)cc1 (stereo not given) | > 100 | > 100 | > 100 | > 100 | > 100 | > 100 | > 100 | > 100 | > 100 | > 100 | – | – | – | – | – | – | – | – | – | –
CC1C(=O)C(C)C(c2ccco2)N(N=O)C1c1ccco1 (stereo not given) | > 100 | > 100 | > 100 | > 100 | > 100 | > 100 | > 100 | > 100 | > 100 | – | – | – | – | – | – | – | – | – | – | –
O=c1c2cc(S(=O)(=O)O)ccc2nc(COc2ccc(Oc3ccc(Cl)cc3Cl)cc2)n1C(=S)Nc1ccc(Cl)cc1 | 34.1 | – | 29.7 | 39.8 | 71.4 | > 100 | 49 | 35.8 | 31.9 | 64.7 | – | – | – | – | – | – | – | – | – | –
Cc1ccc(N=NC(C2=NC(=O)CS2)c2nc3ccccc3[nH]2)cc1 (stereo not given) | > 100 | – | > 100 | > 100 | > 100 | > 100 | > 100 | > 100 | > 100 | > 100 | – | – | – | – | – | – | – | – | – | –
C[n+]1c2ccccc2c(CNC(CS)C(=O)O)c2ccccc21 (stereo not given) | 47.8 | > 100 | 58 | 34.8 | 57.5 | 70.5 | 92.1 | 47.9 | 35.8 | > 100 | – | – | – | – | – | – | – | – | – | –
CCOC(=O)Nc1cc2c(c(N)n1)N=C(c1ccc3ccccc3c1)CN2 | – | 1.47 | > 62.9 | 0.545 | 3.94 | 36.9 | 19.3 | 3.33 | 0.427 | > 83.3 | – | – | – | – | – | – | – | – | – | –
CS(=O)(=O)OCCN(CCOS(C)(=O)=O)c1ccc(/C=N/Nc2ncnc3nc[nH]c23)cc1 | 31.7 | 39.5 | 92 | 31.1 | 34.8 | 32.5 | 55.2 | 34.3 | 49.4 | 97.2 | – | – | – | – | – | – | – | – | – | –
Nc1nc(OCC2CCCCC2)c2[nH]cnc2n1 | > 56.9 | > 67.8 | 38.2 | 60.1 | > 100 | 58 | > 50.4 | > 67.9 | 45 | 38.4 | – | – | – | – | – | – | – | – | – | –
CN(C)c1ccc(/C=c2/c3ccccc3n3c2cc(NC(=O)NCCC[N+](C)(C)C)[n+]3C)cc1 | > 100 | – | > 100 | > 100 | > 100 | > 100 | > 100 | > 100 | > 100 | > 100 | – | – | – | – | – | – | – | – | – | –
NCCNCCNc1ccc(NCCNCCN)c2c1C(=O)c1c(O)ccc(O)c1C2=O | > 100 | > 100 | > 100 | > 100 | > 100 | > 100 | > 100 | > 100 | > 100 | > 100 | – | – | – | – | – | – | – | – | – | –
CCO[C@]12CCC[C@H]1[C@@H]1C(=O)c3ccccc3C(=O)C1=C(C)O2 | > 100 | > 100 | > 100 | > 100 | > 100 | > 100 | > 100 | > 100 | > 100 | > 100 | – | – | – | – | – | – | – | – | – | –
CC1(C=O)CCC23COC4(CCC5C6(C)CCC(OC7OCC(OC8OC(CO)C(O)C(OC9OC(CO)C(O)C(O)C9O)C8OC8OCC(O)C(O)C8O)C(O)C7OC7OC(CO)C(O)C(O)C7O)C(C)(C)C6CCC5(C)C4(C)CC2O)C3C1 (stereo not given) | 2.56 | 2.17 | 2.8 | 3.41 | 1.42 | 2.32 | – | 2.55 | 2.63 | 2.57 | – | – | – | – | – | – | – | – | – | –
CCCCCCCN(CCCCCCC)CC(O)c1cc2ccccc2c2cc(Br)ccc12 (stereo not given) | > 100 | 45.7 | > 100 | > 100 | – | > 100 | 40.7 | > 100 | > 100 | > 100 | – | – | – | – | – | – | – | – | – | –
COc1cc([N+](=O)[O-])ccc1NC(=O)c1cccc([N+](=O)[O-])c1O | 40.3 | > 100 | 56.5 | 39 | > 100 | 48.8 | 63.5 | > 100 | 75.2 | 62 | – | – | – | – | – | – | – | – | – | –
Oc1ccc(-c2nc3cc(F)ccc3s2)cc1 | 33.9 | 28.3 | 49.9 | 30.7 | 52.5 | 43.9 | 43.3 | 48.8 | – | 40.7 | – | – | – | – | – | – | – | – | – | –
c1ccc([P+](c2ccccc2)(c2ccccc2)c2ccc(-c3ccc([P+](c4ccccc4)(c4ccccc4)c4ccccc4)cc3)cc2)cc1 | 31.5 | > 100 | – | 64.4 | > 100 | > 100 | 89.9 | > 100 | > 100 | 73.3 | – | – | – | – | – | – | – | – | – | –
CC1(O)COCCCCOc2c(CN)cccc2NC(=O)c2nc(cnc2N)-c2ccc(cc2)S(=O)(=O)C(C)(C)C1 (stereo not given) | 2.17 | 2.87 | 2.31 | – | 2.93 | 2.53 | 3.43 | 1.94 | 1.67 | 2.06 | 0.546 | 1.48 | 1.06 | 1.43 | 1.22 | 1.77 | < 0.01 | 0.042 | 0.03 | –
CC1CC(Br)C(=O)O1 (stereo not given) | > 100 | > 100 | > 100 | > 100 | > 100 | > 100 | > 100 | > 100 | > 100 | > 100 | – | – | – | – | – | – | – | – | – | –
N=C(N)SCc1cccc([N+](=O)[O-])c1 | 47.9 | > 100 | > 77.8 | 18.2 | > 31.6 | 74.1 | > 76.6 | > 100 | 68.3 | – | – | – | – | – | – | – | – | – | – | –
CCc1ccc2c(c1)C(=O)c1c-2n(CCCN)c(=O)c2cc([N+](=O)[O-])ccc12 | 2.51 | 1.12 | 2.69 | 2.7 | 2.43 | 3.11 | 2.8 | 0.504 | 3.01 | 2.84 | 1.21 | 0.376 | 1.38 | 1.02 | 1.55 | 1.42 | 0.167 | 1.51 | 1.6 | 1.23
c1c2c(cc3c1OCO3)-c1cc3ccc4c(c3c[n+]1CC2)OCO4 | > 10.8 | > 12.5 | > 12.5 | 1.8 | > 5.45 | > 12.5 | 3.04 | 3.55 | 3.12 | > 12.5 | – | – | – | – | – | – | – | – | – | –
